One data set deals with 501MEL. The data set is described as follows: MTT cell viability, 501MEL. The class given is cell-based. As to conditions: 501MEL, 48 hours; mean (±SEM); read-out: IC50. Here is the method:
(§1) Cells (10^4) were seeded into 96-well plates and then treated with NUC-7738 (lot 5132/E00393/119) or 3′-dA (cordycepin, catalog no. C3394, lot 067M4182, Sigma) for 48 hours. One and a half milligrams per milliliter MTT (catalog no. M6494, Invitrogen) in a 1:1 ratio was added to cell culture media. After a 2-hour incubation at 37°C, media was removed and 70 μl of isopropanol was added. Optical densities at 570 nm were measured using POLARstar Omega plate reader. Readouts were normalized and IC50 values were calculated using a nonlinear regression model in Graphpad prism (v8.3.0). Each biological replicate (at least 3) was performed in 4 technical replicates to calculate the average IC50 value. To measure apoptosis, the Guava NexinReagent (Luminex Corp.) was used following manufacturer's instructions. Fluorescence staining was measured with an automated 96-well Guava easyCyte Flow Cytometer (Luminex Corp.).

The subject of a further data set is UO-31. Put plainly: MTT cell viability, UO-31. The format is cell-based. As to conditions: Homo sapiens; UO-31, 48 hours; mean (±SEM); read-out: IC50. Here is the method:
as §1

In another data set the test system is ACHN. Put plainly: MTT cell viability, ACHN. The format is cell-based. As to conditions: Homo sapiens, 48 hours, mean (±SEM), read-out: IC50. The protocol: as §1
The test system of the next data set is SK-OV3. The data set is described as follows: MTT cell viability, SK-OV3. The class given is cell-based. As to conditions: Homo sapiens, SK-OV-3; SK-OV3, 48 hours; 2 biological replicates; read-out: IC50. Here is the method:
as §1

The test system of data set [1] is HAP1 cells. Put plainly: HAP1 viability with ADA, hENT1 or ADK inhibitors. The format is cell-based, human. As to conditions: HAP1, EHNA, NBTI, A134974. Here is the method:
as §1
To assess whether NUC-7738 was resistant to ADA and could bypass ADK and hENT1 (SLC29A1), cell viability was measured after treatment with their specific and corresponding protein inhibitors: erythro-9-(2-Hydroxy-3-nonyl) adenine hydrochloride (EHNA), A134974, and S-(4-nitrobenzyl)-6-thioinosine (NBTI), respectively ([16, 17, 34, 35]).

In a further data set the test system is CAKI-1. The data set is described as follows: MTT cell viability, CAKI-1. The format is cell-based. As to conditions: Homo sapiens; CAKI-1, 48 hours; mean (±SEM); read-out: IC50. Here is the method:
as §1

For data set [2], the system named is HAP1 cells. Put plainly: MTT cell viability, HAP1 cells. The format is cell-based. As to conditions: Homo sapiens. The protocol: as §1
The subject of another data set is NCI-786. The data set is described as follows: MTT cell viability, NCI-786. The class given is cell-based. To be noted: NCI-786, 48 hours; mean (±SEM); read-out: IC50. Here is the method:
as §1

For a further data set, the system named is AGS. The data set is described as follows: MTT cell viability, AGS. To be noted: Homo sapiens, 48 hours, mean (±SEM), read-out: IC50. The format is cell-based. Here is the method:
as §1

On the set-up of data set [3]: method as in PMID 20302371. As to conditions: cited from earlier work.
The next data set has as its system cancer cell lines. Put plainly: IC50 across a wide set of cancer cell lines. The format is cell-based. As to conditions: mean across a wide set of cancer cell lines; read-out: mean IC50. The protocol: as §1
The subject of data set [4] is NUDT2 knockout HAP1 cells. Put plainly: Sensitivity of NUDT2 CRISPR/Cas9 knockout HAP1 cells. The class given is cell-based, human. As to conditions: HAP1 NUDT2 knockout vs wildtype. The protocol: Cells were transfected with stealth siRNA (catalog no. HSS104782, catalog no. HSS104784, catalog no. HSS179235; ThermoFisher) targeting HINT-1 using Lipofectamine RNAiMAX (Invitrogen) following the manufacturer's protocol. At 48 hours posttransfection, cells were treated and cell viability was measured 96 hours posttransfection as described above. Samples for Western blot analysis were harvested 48 hours posttransfection. For gene-depletion experiments, approximately 4 × 10^5 HAP1 cells were seeded per well in a 6-well plate and grown to approximately 50% confluency. After 24 hours, cells were transfected with lentiCRISPR v2 plasmid (GenScript) containing a guide RNA (gRNA) targeting gene of interest using Turbofectin (catalog no. TF81001, OriGene) according to manufacturer's instruction. The following sequences were used: HINT-1 CRISPR gRNA 2 ([…]) and NUDT2 CRISPR gRNA 2 ([…]). At 24 hours posttransfection, positively transfected cells were selected using […] puromycin for 72 hours. After selection, surviving colonies were expanded and used for downstream analysis. For clonal selection, clones were selected using limited dilution and expanded into a 6-well plate for Western blot screening.

A further data set relates to A498. Put plainly: MTT cell viability, A498. The format is cell-based. As to conditions: Homo sapiens; A498, 48 hours; mean (±SEM); read-out: IC50. Here is the method: as §1
A further data set concerns Tera-1. The data set is described as follows: MTT cell viability, Tera-1. The format is cell-based. As to conditions: Tera-1, 48 hours; mean (±SEM); read-out: IC50. The protocol: as §1
Data set [5] deals with Gastric or cervical cancer cells. Put plainly: Apoptosis by cleaved PARP Western blot. The format is cell-based. To be noted: 50 and 100 μmol/L, 24 hours. The protocol:
as §1
Cells were harvested and lyzed using RIPA lysis and extraction buffer (Thermo Scientific) following manufacturer's protocol. Twenty to 30 μg of total protein lysates was loaded on Mini-PROTEAN TGX precast gels (Bio-Rad). Separated proteins were transferred to a polyvinylidene difluoride (PVDF) membrane using Trans-Blot Turbo Transfer System (Bio-Rad) followed by incubation with primary and horseradish peroxidase (HRP)–conjugated secondary antibodies [anti-mouse, catalog no. […]
Background: Immunoblotting shows a protein as a band on a membrane.

Data set [6] in a line: NuTide:701 first-in-human phase I study. The class given is in vivo. To be noted: human, in vivo. The protocol:
A Safety Study of NUC-7738 in Patients with Advanced Solid Tumours or Lymphoma, ClinicalTrials number: NCT03829254. Approved by Oxford C Ethics Committee ref 18/SC/0628.
This study is currently ongoing at three centers in the United Kingdom: Edinburgh, Newcastle, and Oxford. As of June 1, 2021, 28 patients with advanced cancers have been enrolled and received escalating doses of 14–900 mg/m^2 (intravenous infusion from 30–120 minutes) once weekly until dose-limiting toxicity or disease progression occurs. Intrapatient dose escalation ensures those starting at lower dose levels of NUC-7738 are continuously moved to higher doses once safety has been established. The most common cancers to be included are immunotherapy-resistant melanoma (n = 8), colorectal cancer (n = 3), and gastric and lung cancer (n = 2 each). […] A posttreatment biopsy was taken from a patient with melanoma and compared with their archived specimen collected prior to enrolling in the clinical trial. […] Transcriptional profiling of the specimens using RNA-seq identified more than 1,069 genes which were at least 2-fold differentially expressed after treatment with NUC-7738 (Fig. 6C and Supplementary Fig. S6A–C).

Data set [7] in a line: Beagle dog 4-week toxicology and toxicokinetics.
Setting [8] is: all doses, both occasions and genders.

Read-outs that look alike come from different tables or passages of the source.

As usually defined, the Tmax is the time from dosing to the highest level.

`Nc1ncnc2c1ncn2[C@@H]1O[C@H](CO)C[C@H]1O` [3′-dA, 3′-deoxyadenosine, reference compound]: the IC50 in the data set with 501MEL amounted to 137 µM; with UO-31 it was 385 µM; with ACHN, 393 µM; in the data set with SK-OV3, 360 µM; in the data set on CAKI-1, 291 µM; in the data set with HAP1 cells [2] (HAP1, 48 hours, MTT, mean (±SEM) of 4 biological replicates, read-out: IC50), 49.9 µM. Besides, the IC50 stood at 46 µM in the data set with HAP1 cells [2] (HAP1, as stated in RNA-seq method, read-out: IC50 concentration used for RNA-seq); 181 µM with NCI-786; 460 µM in the data set with AGS; 138 µM in the data set on cancer cell lines; 479 µM with A498; 200 µM in the data set on Tera-1. The “potency upon inhibition of ADA, hENT1 or ADK” value in the data set on HAP1 cells [1] is “dependent on ADA, hENT1, and ADK”. The IC90 came out at 151 µM with HAP1 cells [2] (HAP1, 48 hours, MTT, mean (±SEM) of 4 biological replicates, read-out: IC90) and 375 µM in the data set with HAP1 cells [2] (HAP1, as stated in RNA-seq method, read-out: IC90 concentration used for RNA-seq). For the same compound, the half-life in plasma in data set [3] is 1.6 min. Also, the “resistance after NUDT2 deletion” value in data set [4] was “Specific resistance”. Moreover, in data set [5], the “apoptotic cell death, cleaved PARP-1” value was “induced apoptotic cell death”.

In the case of `Nc1ncnc2c1ncn2[C@@H]1O[C@H](COP(=O)(O)OP(=O)(O)OP(=O)(O)O)C[C@H]1O` [3′-dATP, 3′-dA-5′-triphosphate], the intracellular half-life result in [6] is given as “approximately 50 h”.

For `O=c1[nH]cnc2c1ncn2[C@@H]1O[C@H](CO)C[C@H]1O` [3′-deoxyinosine], in [7] (setting [8]), the “mean ratio metabolite/parent, AUC 0-t” value is listed as 1.32 and the “mean ratio metabolite/parent, Cmax” value was 0.42. Also, the Tmax in data set [7] (both, beagle, plasma, iv) came to 15 min.

The values are drawn from PMC9401491, “The Novel Nucleoside Analogue ProTide NUC-7738 Overcomes Cancer Resistance Mechanisms In Vitro and in a First-In-Human Phase I Clinical Trial” (Clinical Cancer Research, 2021).
